The subject of one test is NUGC4 cells. As to the kind of experiment: Cell-proliferation inhibitory assay against NUGC4 cells (Crystal Violet). The note with it: Homo sapiens, NUGC-4, 72 h; NUGC4, cancer, c-Met status (+), 3 days. Type of test: cell-based. How it is done: Cell-Proliferation Inhibitory Assay Against NUGC4 Cells (Human Gastric Cancer Cell Strain in Which c-Met is Over-Expressed and Highly Activated), In Vitro Test
NUGC4 cell suspension (in a 10% FBS-containing RPMI 1640 medium (product of Wako Pure Chemical Industries Ltd.) or a FBS-containing DMEM medium (product of Nacalai Tesque, Inc.)) was inoculated to each well of a 96-well (flat-bottom) microplate in an amount of 2×10^3 cells (0.1 mL), and the plate was incubated in an incubator under 5% CO2 gas atmosphere at 37° C. for one day. Each of the compounds of the present invention and comparative compound 1 was dissolved in dimethyl sulfoxide to a concentration of 30 mM. The solution was diluted with 10% FBS-containing RPMI 1640 or DMEM medium, to a final test compound concentration of 60, 20, 6, 2, 0.6, or 0.2 μM. The thus-prepared test compound solution was added to each well of the NUGC4 cell culture plate at 0.1 mL/well, and the plate was incubated in an incubator under 5% CO2 gas atmosphere at 37° C. for 3 days. After culturing, 25% aqueous glutaraldehyde solution (product of Nacalai Tesque, Inc.) was added to each well at 20 μL, and the plate was left to stand at room temperature for 20 minutes, whereby cells were fixed. Thereafter, the plate was washed with tap water and dried. Then, aqueous 0.05% Crystal Violet/20% methanol solution (product of Wako Pure Chemical Industries Ltd.) was added to each well at 100 μL/well, and the plate was left to stand at room temperature for 20 minutes, whereby cells were stained. Thereafter, the plate was washed with tap water and dried. To each well, 0.05 M NaH2PO4/ethanol (1/1=v/v) (100 μL) was added, to thereby extract Crystal Violet. The absorbance of the extracted Crystal Violet was measured at 540 nm using a microplate reader, and the absorbance was employed as an index for living cell count. Percent inhibition was calculated by the following equation, and the 50% inhibition test compound concentration (IC50 (μM)) was calculated. Percent inhibition (%)=(C−T)/C×100 • T: Absorbance of well to which a test compound was added • C: Absorbance of well to which no test compound was added

The test system of the next test is HCT-116. As to the kind of experiment: Cell proliferation inhibition test against c-Met low expressing tumor cells (HCT-116). Type of test: cell-based. The following applies: for IC50: Homo sapiens, read-out: IC50 HCT-116; for ratio HCT-116: IC50 HCT-116 relative to IC50 NUGC4.
The next test deals with c-Met (Homo sapiens, UniProt P08581). As to the kind of experiment: c-Met inhibitory assay using DeskTop Profiler (Method B). It is filed as biochemical. Also on record: made in house. The following applies: ATP 43 μM. How it is done: Method B) c-Met Inhibitory Assay Using DeskTop Profiler
c-Met, sequence (P08581 25-1390): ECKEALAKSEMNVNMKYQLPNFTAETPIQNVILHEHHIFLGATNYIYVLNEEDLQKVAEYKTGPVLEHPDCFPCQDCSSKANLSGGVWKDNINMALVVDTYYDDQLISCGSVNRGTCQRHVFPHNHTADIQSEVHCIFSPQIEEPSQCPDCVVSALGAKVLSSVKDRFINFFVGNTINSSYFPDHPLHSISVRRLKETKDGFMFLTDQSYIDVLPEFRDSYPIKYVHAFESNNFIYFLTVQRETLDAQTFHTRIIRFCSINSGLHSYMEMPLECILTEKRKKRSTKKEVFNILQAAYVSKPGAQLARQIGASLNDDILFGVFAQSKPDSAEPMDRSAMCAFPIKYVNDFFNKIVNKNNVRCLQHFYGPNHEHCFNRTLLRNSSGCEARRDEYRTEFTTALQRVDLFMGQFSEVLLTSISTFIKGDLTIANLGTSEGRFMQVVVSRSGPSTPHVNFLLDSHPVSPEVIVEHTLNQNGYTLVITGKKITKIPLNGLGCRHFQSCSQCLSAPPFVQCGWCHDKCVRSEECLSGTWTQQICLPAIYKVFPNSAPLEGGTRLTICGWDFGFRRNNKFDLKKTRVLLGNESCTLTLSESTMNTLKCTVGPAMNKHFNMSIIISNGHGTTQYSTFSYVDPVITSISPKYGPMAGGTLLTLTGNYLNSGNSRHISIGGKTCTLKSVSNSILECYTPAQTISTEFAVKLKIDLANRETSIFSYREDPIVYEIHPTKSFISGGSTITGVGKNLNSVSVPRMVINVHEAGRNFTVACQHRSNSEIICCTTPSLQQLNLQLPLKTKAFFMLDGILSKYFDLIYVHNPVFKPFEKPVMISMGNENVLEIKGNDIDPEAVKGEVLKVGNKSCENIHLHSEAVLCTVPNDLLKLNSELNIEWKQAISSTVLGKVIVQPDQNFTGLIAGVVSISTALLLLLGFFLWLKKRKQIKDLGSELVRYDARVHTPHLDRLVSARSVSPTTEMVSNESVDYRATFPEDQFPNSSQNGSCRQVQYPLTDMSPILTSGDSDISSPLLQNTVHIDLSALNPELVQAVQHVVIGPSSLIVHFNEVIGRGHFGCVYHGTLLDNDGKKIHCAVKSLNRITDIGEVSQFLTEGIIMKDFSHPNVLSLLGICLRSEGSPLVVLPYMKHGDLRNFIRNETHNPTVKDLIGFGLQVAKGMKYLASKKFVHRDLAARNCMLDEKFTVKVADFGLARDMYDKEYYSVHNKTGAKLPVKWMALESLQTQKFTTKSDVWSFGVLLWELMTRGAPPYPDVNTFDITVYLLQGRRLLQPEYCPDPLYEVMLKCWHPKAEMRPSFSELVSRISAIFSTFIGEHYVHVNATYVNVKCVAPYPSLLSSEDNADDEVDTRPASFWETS
A dephosphorylation enzyme inhibitor cocktail (PhosSTOP, #4906837, product of Roche) and a protease inhibitor cocktail (Complete, Mini, EDTA-free, #1836170; product of Roche) were added to a reaction buffer (100 mM HEPES (pH: 7.5), 10 mM MgCl2, 0.003% Brij-35, 0.04% Tween, and 1 mM DTT). In the presence of the compound of the present invention, recombinant c-Met (purified product of Taiho Pharmaceutical Co., Ltd.), fluorescence-labeled c-Met substrate peptide (FL-Peptide 2, #760346, Caliper Life Sciences) (final concentration: 1.5 μM), and ATP (final concentration: 43 μM) were added thereto, and the mixture was allowed to react at 28° C. for 90 minutes. EDTA was added to the reaction mixture to a final concentration of 10 mM, to thereby terminate reaction. By use of DeskTop Profiler (#119900, Caliper Life Sciences), each fluorescence intensity of the substrate and that of the phosphorylated product was determined, whereby the amount of the formed phosphorylated product was determined. The compound concentration that realizes 50% inhibition of formation of phosphorylated product was defined as IC50 (μM), and the results are shown in the following Tables.

[1] abbreviates: 72 h, HCT-116, cancer, c-Met status (−), 3 days.

Each structure is given as a SMILES string. Like-named read-outs stand apart in the source and are kept apart here.

One may read the IC50 as the point on the concentration scale where inhibition reaches its midpoint. On to `COc1cc2nccc(Oc3ccc(NC(=S)NC(=O)Cc4ccccc4)cc3F)c2cc1C(=O)NCC(=O)N1CCC[C@H]1CO` [Example 34, (S)-4-(2-Fluoro-4-(3-(2-phenylacetyl)thioureido)phenoxy)-N-(2-(2-(hydroxymethyl)pyrrolidin-1-yl)-2-oxoethyl)-7-methoxyquinoline-6-carboxamide], for which the IC50 with NUGC4 cells was 20 nM; with HCT-116 (setting [1]), over 30000 nM; against c-Met it was 22 nM. The “ratio HCT-116” value with HCT-116 is on record as over 2000.

On c-Met, `COc1cc2nccc(Oc3ccc(NC(=S)NC(=O)Cc4ccccc4)cc3F)c2cc1C(=O)NCCC(=O)N(C)C` [Example 36, N-(3-(Dimethylamino)-3-oxopropyl)-4-(2-fluoro-4-(3-(2-phenylacetyl)thioureido)phenoxy)-7-methoxyquinoline-6-carboxamide] came in with an IC50 of 52 nM.

Regarding `COc1cc2nccc(Oc3ccc(NC(=S)NC(=O)Cc4ccc(F)cc4)cc3F)c2cc1C(=O)NCCN1CCOCC1` [Example 37, 4-(2-fluoro-4-(3-(2-(4-fluorophenyl)acetyl)thioureido)phenoxy)-7-methoxy-N-(2-morpholinoethyl)quinoline-6-carboxamide], the figures for the IC50 with NUGC4 cells, in the test with HCT-116 (setting [1]) and against c-Met were 10 nM, over 30000 nM and 35 nM, respectively. In addition, the “ratio HCT-116” value with HCT-116 is given as over 3000.

Regarding `CC[C@@H](CO)NC(=O)c1cc2c(Oc3ccc(NC(=S)NC(=O)Cc4ccc(F)cc4)cc3F)ccnc2cc1OC` [Example 38, (S)-4-(2-Fluoro-4-(3-(2-(4-fluorophenyl)acetyl)thioureido)phenoxy)-N-(1-hydroxybutan-2-yl)-7-methoxyquinoline-6-carboxamide], the IC50 with NUGC4 cells was 40 nM; in the test with HCT-116 (HCT-116, 72 h) it was over 30000 nM; at c-Met, 32 nM. Besides, the “ratio HCT-116” value in the test with HCT-116 is listed as over 719.

Molecule `COc1cc2nccc(Oc3ccc(NC(=S)NC(=O)Cc4ccccc4F)cc3F)c2cc1C(=O)NCC(C)(C)O` [Example 39, 4-(2-Fluoro-4-(3-(2-(2-fluorophenyl)acetyl)thioureido)phenoxy)-N-(2-hydroxy-2-methylpropyl)-7-methoxyquinoline-6-carboxamide] returned an IC50 on c-Met of 29 nM.

`CC[C@@H](CO)NC(=O)c1cc2c(Oc3ccc(NC(=S)NC(=O)Cc4ccccc4F)cc3F)ccnc2cc1OC` [Example 40, (S)-4-(2-Fluoro-4-(3-(2-(2-fluorophenyl)acetyl)thioureido)phenoxy)-N-(1-hydroxybutan-2-yl)-7-methoxyquinoline-6-carboxamide] returned an IC50 against c-Met of 27 nM.

Take `CC[C@@H](CO)NC(=O)c1cc2c(Oc3ccc(NC(=S)NC(=O)Cc4cccc(F)c4)cc3F)ccnc2cc1OC` [Example 41, (S)-4-(2-Fluoro-4-(3-(2-(3-fluorophenyl)acetyl)thioureido)phenoxy)-N-(1-hydroxybutan-2-yl)-7-methoxyquinoline-6-carboxamide]: half-maximal inhibition against c-Met (IC50) required 34 nM.

In turn, `COc1cc2nccc(Oc3ccc(NC(=S)NC(=O)Cc4ccc(Cl)cc4)cc3F)c2cc1C(=O)NCC(C)(C)O` [Example 42, 4-(4-(3-(2-(4-Chlorophenyl)acetyl)thioureido)-2-fluorophenoxy)-N-(2-hydroxy-2-methylpropyl)-7-methoxyquinoline-6-carboxamide] registered an IC50 against c-Met of 45 nM.

As for `CC[C@@H](CO)NC(=O)c1cc2c(Oc3ccc(NC(=S)NC(=O)Cc4ccc(Cl)cc4)cc3F)ccnc2cc1OC` [Example 43, (S)-4-(4-(3-(2-(4-Chlorophenyl)acetyl)thioureido)-2-fluorophenoxy)-N-(1-hydroxybutan-2-yl)-7-methoxyquinoline-6-carboxamide], at c-Met, it took 50 nM to reach half-maximal inhibition (IC50).

In turn, `COc1cc2nccc(Oc3ccc(NC(=S)NC(=O)Cc4c(F)cccc4F)cc3F)c2cc1C(=O)NCCN1CCOCC1` [Example 44] yielded an IC50 at c-Met of 101 nM.

On to `COc1cc2nccc(Oc3ccc(NC(=S)NC(=O)Cc4c(F)cccc4F)cc3F)c2cc1C(=O)NCC(C)(C)O` [Example 45], for which the IC50 against c-Met worked out at 56 nM.

At c-Met, `CNC(=O)c1cc2c(Oc3ccc(NC(=S)NC(=O)Cc4cccc(OC)c4)cc3F)ccnc2cc1OC` [Example 46, 4-(2-Fluoro-4-(3-(2-(3-methoxyphenyl)acetyl)thioureido)phenoxy)-7-methoxy-N-methylquinoline-6-carboxamide] displayed a 50% inhibitory concentration (IC50) of 85 nM.

In the case of `CNC(=O)c1cc2c(Oc3ccc(NC(=S)NC(=O)Cc4ccc(C(F)(F)F)cc4)cc3F)ccnc2cc1OC` [Example 47, 4-(2-Fluoro-4-(3-(2-(4-trifluoromethylphenyl)acetyl)thioureido)phenoxy)-7-methoxy-N-methylquinoline-6-carboxamide], the IC50 against c-Met turned out to be 203 nM.

`CNC(=O)c1cc2c(Oc3ccc(NC(=S)NC(=O)Cc4ccccc4)cc3Cl)ccnc2cc1OC` [Example 48, 4-(2-Chloro-4-(3-(2-phenylacetyl)thioureido)phenoxy)-7-methoxy-N-methylquinoline-6-carboxamide] yielded a concentration for half-maximal inhibition (IC50) against c-Met of 34 nM.

Regarding `CNC(=O)c1cc2c(Oc3ccc(NC(=S)NC(=O)Cc4ccccc4)c(F)c3)ccnc2cc1OC` [Example 49, 4-(3-Fluoro-4-(3-(2-phenylacetyl)thioureido)phenoxy)-7-methoxy-N-methylquinoline-6-carboxamide], the IC50 against c-Met stood at 62 nM.

`COc1cc2nccc(Oc3ccc(NC(=S)NC(=O)Cc4ccccc4)cc3F)c2cc1C(=O)N(C)C` [Example 50, 4-(2-Fluoro-4-(3-(2-phenylacetyl)thioureido)phenoxy)-7-methoxy-N,N-dimethylquinoline-6-carboxamide] registered an IC50 at c-Met of 139 nM.
